Measured values published in patent publication US11820822B2, “Methods for sensitizing cancer cells to T cell-mediated killing by modulating molecular pathways” (DANA-FARBER CANCER INSTITUTE, INC., priority 2017, dated 2023).

Experiments:
[1] = system: B16F10-Cas9 cells pulsed with SIINFEKL peptide, co-cultured with OT-I T cells; test: Genome-scale CRISPR-Cas9 screen, selection with OT-I T cells; assay type: cell-based, mouse; details: for OT1 (sgRNA Log(2) fold change, OT-I selection versus control T cells): Table 3, B16F10-Cas9 cells pulsed with SIINFEKL, co-cultured with OT-I T cells 1:1 for one day, negative = depleted, positive = enriched; for logFC: Log2 fold change of gRNAs per gene, OT-I screen, genes depleted (FDR < 0.05)
[2] = system: B16F10-Cas9 cells co-cultured with Pmel-1 T cells; test: Genome-scale CRISPR-Cas9 screen, selection with Pmel-1 T cells; assay type: cell-based, mouse; details: for Pmel+ (sgRNA Log(2) fold change, Pmel-1 selection versus control T cells): Table 3, B16F10-Cas9 cells pre-treated with IFNγ, co-cultured with Pmel-1 T cells 1:1 for three days, negative = depleted, positive = enriched; for logFC: Log(2) fold change of gRNAs per gene, genes depleted in Pmel-1 screen

AAAAATTCAACGTTGAAACA (chemistry not fully specified)
OT1 (sgRNA Log(2) fold change, OT-I selection versus control T cells) [1]: -1.37 | Pmel+ (sgRNA Log(2) fold change, Pmel-1 selection versus control T cells) [2]: -3.43

AAAACGGTCTCAAGCCAATG (chemistry not fully specified)
OT1 (sgRNA Log(2) fold change, OT-I selection versus control T cells) [1]: -3.05 | Pmel+ (sgRNA Log(2) fold change, Pmel-1 selection versus control T cells) [2]: 1.05

AAACAAGAGCACACTCCCCG (chemistry not fully specified)
OT1 (sgRNA Log(2) fold change, OT-I selection versus control T cells) [1]: -2.06 | Pmel+ (sgRNA Log(2) fold change, Pmel-1 selection versus control T cells) [2]: 1.49

AAACATATAGTGTACCTCTA (chemistry not fully specified)
OT1 (sgRNA Log(2) fold change, OT-I selection versus control T cells) [1]: 2.36 | Pmel+ (sgRNA Log(2) fold change, Pmel-1 selection versus control T cells) [2]: 10.21

AACTTCAGTAGCGGGCGACG (chemistry not fully specified)
OT1 (sgRNA Log(2) fold change, OT-I selection versus control T cells) [1]: -2.23 | Pmel+ (sgRNA Log(2) fold change, Pmel-1 selection versus control T cells) [2]: 0.00

AAGACATATAGTTATCAGCA (chemistry not fully specified)
OT1 (sgRNA Log(2) fold change, OT-I selection versus control T cells) [1]: -2.22 | Pmel+ (sgRNA Log(2) fold change, Pmel-1 selection versus control T cells) [2]: -1.83

AAGGGCCACTTACAATTAGG (chemistry not fully specified)
OT1 (sgRNA Log(2) fold change, OT-I selection versus control T cells) [1]: -0.44 | Pmel+ (sgRNA Log(2) fold change, Pmel-1 selection versus control T cells) [2]: 2.10

AAGTCCTAGATAAAGCACAT (chemistry not fully specified)
OT1 (sgRNA Log(2) fold change, OT-I selection versus control T cells) [1]: 3.13 | Pmel+ (sgRNA Log(2) fold change, Pmel-1 selection versus control T cells) [2]: 3.43

AATGCTGACGACTTTCAATG (chemistry not fully specified)
OT1 (sgRNA Log(2) fold change, OT-I selection versus control T cells) [1]: -2.31 | Pmel+ (sgRNA Log(2) fold change, Pmel-1 selection versus control T cells) [2]: 0.00

ACACAACGCTAAGACAGTCG (chemistry not fully specified)
OT1 (sgRNA Log(2) fold change, OT-I selection versus control T cells) [1]: -3.60 | Pmel+ (sgRNA Log(2) fold change, Pmel-1 selection versus control T cells) [2]: -0.22

ACAGATACGGAGTGTCCCGT (chemistry not fully specified)
OT1 (sgRNA Log(2) fold change, OT-I selection versus control T cells) [1]: 2.85 | Pmel+ (sgRNA Log(2) fold change, Pmel-1 selection versus control T cells) [2]: 1.90

ACAGCCTCCCAATATCTCAG (chemistry not fully specified)
OT1 (sgRNA Log(2) fold change, OT-I selection versus control T cells) [1]: -3.56 | Pmel+ (sgRNA Log(2) fold change, Pmel-1 selection versus control T cells) [2]: -0.54

ACAGGGAAAGCATGGGACAC (chemistry not fully specified)
OT1 (sgRNA Log(2) fold change, OT-I selection versus control T cells) [1]: -2.35 | Pmel+ (sgRNA Log(2) fold change, Pmel-1 selection versus control T cells) [2]: 0.76

ACATTGATACGCACACTCAC (chemistry not fully specified)
OT1 (sgRNA Log(2) fold change, OT-I selection versus control T cells) [1]: -2.37 | Pmel+ (sgRNA Log(2) fold change, Pmel-1 selection versus control T cells) [2]: 1.41

ACCTCCGAATGATCAATGGG (chemistry not fully specified)
OT1 (sgRNA Log(2) fold change, OT-I selection versus control T cells) [1]: -2.52 | Pmel+ (sgRNA Log(2) fold change, Pmel-1 selection versus control T cells) [2]: -0.84

ACGACGAGGAGTTCGAATAC (chemistry not fully specified)
OT1 (sgRNA Log(2) fold change, OT-I selection versus control T cells) [1]: -2.76 | Pmel+ (sgRNA Log(2) fold change, Pmel-1 selection versus control T cells) [2]: -0.86

ACGCAATGAAAAGGTTTAGG (chemistry not fully specified)
OT1 (sgRNA Log(2) fold change, OT-I selection versus control T cells) [1]: -2.24 | Pmel+ (sgRNA Log(2) fold change, Pmel-1 selection versus control T cells) [2]: 2.19

ACTAATGGACTCGCACACGT (chemistry not fully specified)
OT1 (sgRNA Log(2) fold change, OT-I selection versus control T cells) [1]: -0.42 | Pmel+ (sgRNA Log(2) fold change, Pmel-1 selection versus control T cells) [2]: 2.09

ACTCACTCTGGATAGCATAC (chemistry not fully specified)
OT1 (sgRNA Log(2) fold change, OT-I selection versus control T cells) [1]: 5.27 | Pmel+ (sgRNA Log(2) fold change, Pmel-1 selection versus control T cells) [2]: 3.80

ACTCGTACAGCTCCTGTGGT (chemistry not fully specified)
OT1 (sgRNA Log(2) fold change, OT-I selection versus control T cells) [1]: 0.67 | Pmel+ (sgRNA Log(2) fold change, Pmel-1 selection versus control T cells) [2]: 2.62

ACTTCAAAGTCCATGGCACA (chemistry not fully specified)
OT1 (sgRNA Log(2) fold change, OT-I selection versus control T cells) [1]: -2.45 | Pmel+ (sgRNA Log(2) fold change, Pmel-1 selection versus control T cells) [2]: -0.63

ACTTCTGATTGGCGATTCTG (chemistry not fully specified)
OT1 (sgRNA Log(2) fold change, OT-I selection versus control T cells) [1]: -3.78 | Pmel+ (sgRNA Log(2) fold change, Pmel-1 selection versus control T cells) [2]: -2.49

AGAAGCCACTCGGACTACTG (chemistry not fully specified)
OT1 (sgRNA Log(2) fold change, OT-I selection versus control T cells) [1]: -0.30 | Pmel+ (sgRNA Log(2) fold change, Pmel-1 selection versus control T cells) [2]: 2.77

AGAAGGCAGGCAGAGTGGTG (chemistry not fully specified)
OT1 (sgRNA Log(2) fold change, OT-I selection versus control T cells) [1]: -2.13 | Pmel+ (sgRNA Log(2) fold change, Pmel-1 selection versus control T cells) [2]: -0.75

AGAGATCTGCGCCATTTAAG (chemistry not fully specified)
OT1 (sgRNA Log(2) fold change, OT-I selection versus control T cells) [1]: -3.28 | Pmel+ (sgRNA Log(2) fold change, Pmel-1 selection versus control T cells) [2]: -0.91

AGATTGTCAACAATGGAACT (chemistry not fully specified)
OT1 (sgRNA Log(2) fold change, OT-I selection versus control T cells) [1]: -2.17 | Pmel+ (sgRNA Log(2) fold change, Pmel-1 selection versus control T cells) [2]: 0.00

AGCGTATAATCTTCGATCAG (chemistry not fully specified)
OT1 (sgRNA Log(2) fold change, OT-I selection versus control T cells) [1]: -2.46 | Pmel+ (sgRNA Log(2) fold change, Pmel-1 selection versus control T cells) [2]: 1.35

AGGGAACCTCACTTCCAAGT (chemistry not fully specified)
OT1 (sgRNA Log(2) fold change, OT-I selection versus control T cells) [1]: 3.12 | Pmel+ (sgRNA Log(2) fold change, Pmel-1 selection versus control T cells) [2]: 4.83

AGGTCACAATGTACCAACCC (chemistry not fully specified)
OT1 (sgRNA Log(2) fold change, OT-I selection versus control T cells) [1]: -1.71 | Pmel+ (sgRNA Log(2) fold change, Pmel-1 selection versus control T cells) [2]: -2.61

AGTTGGATCGCGAATAAAGA (chemistry not fully specified)
OT1 (sgRNA Log(2) fold change, OT-I selection versus control T cells) [1]: -2.70 | Pmel+ (sgRNA Log(2) fold change, Pmel-1 selection versus control T cells) [2]: -2.35

AGTTTGGAGCCCAGTAGGCA (chemistry not fully specified)
OT1 (sgRNA Log(2) fold change, OT-I selection versus control T cells) [1]: -2.77 | Pmel+ (sgRNA Log(2) fold change, Pmel-1 selection versus control T cells) [2]: -2.19

ATACACAACTATGATGCCAT (chemistry not fully specified)
OT1 (sgRNA Log(2) fold change, OT-I selection versus control T cells) [1]: -1.48 | Pmel+ (sgRNA Log(2) fold change, Pmel-1 selection versus control T cells) [2]: 5.64

ATAGAAATCTGACACTGCCG (chemistry not fully specified)
OT1 (sgRNA Log(2) fold change, OT-I selection versus control T cells) [1]: -2.12 | Pmel+ (sgRNA Log(2) fold change, Pmel-1 selection versus control T cells) [2]: 0.00

ATAGCACCAAAGCCTAACAA (chemistry not fully specified)
OT1 (sgRNA Log(2) fold change, OT-I selection versus control T cells) [1]: -2.27 | Pmel+ (sgRNA Log(2) fold change, Pmel-1 selection versus control T cells) [2]: 0.00

ATCACCTGGAGCATGCAGGA (chemistry not fully specified)
OT1 (sgRNA Log(2) fold change, OT-I selection versus control T cells) [1]: -0.29 | Pmel+ (sgRNA Log(2) fold change, Pmel-1 selection versus control T cells) [2]: 2.72

ATGAGGTACAGCAGAAAGGT (chemistry not fully specified)
OT1 (sgRNA Log(2) fold change, OT-I selection versus control T cells) [1]: -2.05 | Pmel+ (sgRNA Log(2) fold change, Pmel-1 selection versus control T cells) [2]: 0.90

ATGCAGATAATCCGCCAAAG (chemistry not fully specified)
OT1 (sgRNA Log(2) fold change, OT-I selection versus control T cells) [1]: -2.49 | Pmel+ (sgRNA Log(2) fold change, Pmel-1 selection versus control T cells) [2]: 0.00

ATGGGATTGATCGTTACTGG (chemistry not fully specified)
OT1 (sgRNA Log(2) fold change, OT-I selection versus control T cells) [1]: -2.32 | Pmel+ (sgRNA Log(2) fold change, Pmel-1 selection versus control T cells) [2]: 0.00

ATGTTGCCATCGTCACTGCA (chemistry not fully specified)
OT1 (sgRNA Log(2) fold change, OT-I selection versus control T cells) [1]: 0.41 | Pmel+ (sgRNA Log(2) fold change, Pmel-1 selection versus control T cells) [2]: 3.04

ATTTCAAGAGATTCTATGCT (chemistry not fully specified)
OT1 (sgRNA Log(2) fold change, OT-I selection versus control T cells) [1]: -2.59 | Pmel+ (sgRNA Log(2) fold change, Pmel-1 selection versus control T cells) [2]: 1.73

ATTTGGATTTCAATGTGAGG (chemistry not fully specified)
OT1 (sgRNA Log(2) fold change, OT-I selection versus control T cells) [1]: 5.19 | Pmel+ (sgRNA Log(2) fold change, Pmel-1 selection versus control T cells) [2]: 3.20

CAAAGTCTGCTGTCCGACCT (chemistry not fully specified)
OT1 (sgRNA Log(2) fold change, OT-I selection versus control T cells) [1]: 0.41 | Pmel+ (sgRNA Log(2) fold change, Pmel-1 selection versus control T cells) [2]: 2.57

CAAGAGCCAGACCTTGGATG (chemistry not fully specified)
OT1 (sgRNA Log(2) fold change, OT-I selection versus control T cells) [1]: -2.86 | Pmel+ (sgRNA Log(2) fold change, Pmel-1 selection versus control T cells) [2]: 0.41

CAATAATGCTGGTCTACGTG (chemistry not fully specified)
OT1 (sgRNA Log(2) fold change, OT-I selection versus control T cells) [1]: 0.89 | Pmel+ (sgRNA Log(2) fold change, Pmel-1 selection versus control T cells) [2]: 2.58

CACACCCTTACTGCCCGTCG (chemistry not fully specified)
OT1 (sgRNA Log(2) fold change, OT-I selection versus control T cells) [1]: -2.48 | Pmel+ (sgRNA Log(2) fold change, Pmel-1 selection versus control T cells) [2]: -1.34

CACCGGATCGTCCAATTCCG (chemistry not fully specified)
OT1 (sgRNA Log(2) fold change, OT-I selection versus control T cells) [1]: -2.82 | Pmel+ (sgRNA Log(2) fold change, Pmel-1 selection versus control T cells) [2]: -0.88

CACTGCGAGACCAATCTAGA (chemistry not fully specified)
OT1 (sgRNA Log(2) fold change, OT-I selection versus control T cells) [1]: 1.44 | Pmel+ (sgRNA Log(2) fold change, Pmel-1 selection versus control T cells) [2]: 2.24

Cd36 (guide TAGGATATGGAACCAAACTG; chemistry not fully specified)
logFC [2]: −2.18

Chic2 (guide GCTCAAGTACTCGCCCGACC; chemistry not fully specified)
logFC [1]: −2.09

Ctps
logFC [1]: −1.69

Mrps21 (guide GCGTCGTCGACTTATGACTT; chemistry not fully specified)
logFC [1]: −2.09

Nudcd2 (guide GGTTCCTTGCGGGACTCCGT; chemistry not fully specified)
logFC [1]: −2.09

Sepsecs (guide CACCGGATCGTCCAATTCCG; chemistry not fully specified)
logFC [1]: −2.62

Tial1 (guide AATGCAATTGTGCATATGGG; chemistry not fully specified)
logFC [2]: −2.01
